Measurements published in patent US12605380B2, “Methods of improving lung function” (Endeavor BioMedicines, Inc., priority 2024, dated 2026).

Assays:
Format in all cases: in vivo, human
[1] = test system: subjects with Idiopathic Pulmonary Fibrosis (IPF); assay: Phase 2a study in IPF subjects: quantitative HRCT measurements (TLC, % QILD, % QLF, % QGG)
Experimental: (§1) Study Design. Eligible subjects with mild to moderate IPF were randomized to receive placebo or ENV-101 as a daily oral dose for 12 consecutive weeks of treatment. […] Subjects participated in a Screening Visit, a Day 1 randomization visit, a telephone visit at Week 1, visits at Week 6 and Week 12 during the treatment period and a follow-up visit at Week 18. All subjects were randomized to receive either placebo or 200 mg of taladegib (ENV-101). During the treatment period, if a subject experienced an adverse event that is related to the study medication, the dose of the study drug was permitted to be modified based on the type of adverse event observed and after consultation with the Sponsor and Medical Monitor. A study subject was considered to have completed the study if he or she completed all study visits including the last visit or the last scheduled procedure shown in the Schedule of Activities (SoA). [table] The dosing regimen evaluated in this study was ENV-101 or placebo administered daily. The dose of ENV-101 studied was 200 mg. Subjects randomized to ENV-101 took two 100 mg tablets daily for the 200 mg dose, while subjects randomized to placebo took two placebo tablets daily. Subjects took both tablets at the same time, and it was recommended that subjects take the dose at the same time each day, ideally in the morning prior to eating. If a subject experienced nausea or other gastrointestinal symptoms, it was recommended that the subject take the dose with a low-fat meal or prior to bedtime.

[2] = test system: subjects with Idiopathic Pulmonary Fibrosis (IPF); assay: Phase 2a study in IPF subjects: patient reported outcome, UCSD Shortness of Breath Questionnaire (SOBQ); settings: 200 mg once a day, vs placebo, not statistically significant
Experimental: as §1, with “If a subject experienced nausea or other gastrointestinal symptoms, it was recommended that the subject take the dose with a low-fat meal or prior to bedtime.” left out

[3] = test system: subjects with Idiopathic Pulmonary Fibrosis (IPF); assay: Phase 2a study in IPF subjects: lung function by forced vital capacity (FVC, ppFVC)
Experimental: Study Design. Eligible subjects with mild to moderate IPF were randomized to receive placebo or ENV-101 as a daily oral dose for 12 consecutive weeks of treatment. […] Subjects participated in a Screening Visit, a Day 1 randomization visit, a telephone visit at Week 1, visits at Week 6 and Week 12 during the treatment period and a follow-up visit at Week 18. All subjects were randomized to receive either placebo or 200 mg of taladegib (ENV-101). During the treatment period, if a subject experienced an adverse event that is related to the study medication, the dose of the study drug was permitted to be modified based on the type of adverse event observed and after consultation with the Sponsor and Medical Monitor. A study subject was considered to have completed the study if he or she completed all study visits including the last visit or the last scheduled procedure shown in the Schedule of Activities (SoA). • 1. Males and females greater than 40 years of age. • 2. Idiopathic Pulmonary Fibrosis diagnosis based upon […], Japanese Respiratory Society, European Respiratory Society, Latin […] guidelines within the last 7 years. Diagnosis will be confirmed to be consistent with IPF by centrally read high resolution computed tomography (HRCT) obtained at the Screening Visit or previous HRCT scan performed within 30 days of the Screening Visit may be used. • 3. Ability to successfully perform lung function tests. • 4. Percent predicted forced vital capacity (FVC) of >50% at the Screening Visit. • 5. […] Evidence of other known causes of interstitial lung disease (ILD) (e.g., domestic and occupational environmental exposures, connective-tissue disease [CTD], and drug toxicity), lung transplant expected within 12 months of screening or evidence of clinically significant lung disease other than IPF including but not limited to asthma, chronic obstructive pulmonary disease (COPD), uncontrolled pulmonary hypertension and emphysema where computed tomography (CT)-assessed extent of emphysema is greater than extent of fibrosis. • 2. […]

[4] = test system: subjects with Idiopathic Pulmonary Fibrosis (IPF); assay: Post-hoc analysis of HRCT images with Qureight deep learning models (Lung8, Vascul8, Fibr8)
Text: A post-hoc analysis utilizing deep learning models developed by Qureight (using machine learning methodologies such as 3D convolutional neural networks), were employed to quantify lung volume (Lung8), vessel volume (Vascul8), fibrosis extent (Fibr8) and airway volume (Air8) from High Resolution Computed Tomography images. Deep learning-based CT biomarkers provide an alternate, non-invasive way to predict disease progression and/or assess treatment effects in antifibrotic clinical trials. 34 patients with baseline and week 12 HRCTs were available for model analysis. Of the 34 patients, 18 patients received placebo, and 16 received ENV-101. Group comparisons were performed with an independent t-test, and linear regression assessed variable relationships. Effect sizes were calculated using Hedges' G to account for sample size bias. A p-value<0.05 was considered significant.

[5] = week 12, ENV-101 vs placebo, Hedges' G

## CN(C(=O)c1ccc(F)cc1C(F)(F)F)C1CCN(c2nnc(-c3ccnn3C)c3ccccc23)CC1 [taladegib]
[1]; 200 mg once a day for 12 weeks
  change from baseline in percent quantitative ground glass opacity (% QGG): about −4.6%
  change from baseline in percent quantitative interstitial lung disease (% QILD): about −9%
  change from baseline in percent quantitative lung fibrosis (% QLF): about −2%
[1]; 200 mg once a day for 12 weeks, p=0.005
  increase in total lung capacity (TLC): about 200 mL
[1]; 200 mg once a day, over the three month treatment period
  increase in total lung capacity (TLC), percent: about 8%
[2]
  mean change from baseline of responses to the UCSD Shortness of Breath Questionnaire (SOBQ): improvement
[3]; IPF subjects, 200 mg QD, at 6 weeks (n=16)
  mean change from baseline of percent predicted forced vital capacity (ppFVC): 1.7%
[3]; post-hoc analysis, ENV-101 vs placebo, Hedges' G
  effect size, % predicted FVC: 0.78
[3]; post-hoc analysis, patients with baseline and week 12 HRCT, p=0.03
  % predicted FVC compared to placebo: significant improvement
[4]; treated over 12 weeks
  fibrosis (conclusion in words): reduced
  lung volume (conclusion in words): significantly improved
  pulmonary vascular volume (conclusion in words): significantly reduced
[4]; week 12, 16 patients on ENV-101, p=0.0007 vs placebo
  Change in Pulmonary vascular volume (normalised to lung volume): −0.25%
[4]; week 12, 16 patients on ENV-101, p=0.014 vs placebo
  Lung volume change (total lung volume, Lung8): 142.28 mL
[4]; week 12, 16 patients on ENV-101, p=0.063 vs placebo
  Change in Fibrosis (extent, normalised to lung volume): −1.32%
[4]; [5]
  effect size, change in pulmonary vascular volume: −1.28
  effect size, lung volume change: 0.87
